The numbers were not newly measured in patent publication US9084755B2, “Method for extracting and separating ginkgolides” (CHENGDU BAIYU TECHNOLOGY PHARMACY CO., LTD, priority 2012, dated 2015), which cites them from elsewhere.

In the data set the target is platelet-activating factor PAF receptor (Homo sapiens, UniProt P25105). As to conditions: compared among ginkgolides.
Sequence of platelet-activating factor PAF receptor (P25105 whole entry): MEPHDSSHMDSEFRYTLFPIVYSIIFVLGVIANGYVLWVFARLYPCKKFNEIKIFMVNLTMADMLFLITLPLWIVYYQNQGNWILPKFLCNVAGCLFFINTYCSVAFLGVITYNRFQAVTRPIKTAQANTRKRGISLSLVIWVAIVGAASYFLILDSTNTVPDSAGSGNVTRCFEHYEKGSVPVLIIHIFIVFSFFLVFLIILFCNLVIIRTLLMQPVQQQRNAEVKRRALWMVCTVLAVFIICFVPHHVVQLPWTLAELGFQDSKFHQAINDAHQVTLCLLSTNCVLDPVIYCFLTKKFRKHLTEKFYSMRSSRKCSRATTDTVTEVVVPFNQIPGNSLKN

Regarding `C[C@@H]1C(=O)O[C@H]2[C@H](O)C34[C@H]5C[C@@H](C(C)(C)C)[C@]36[C@@H](OC(=O)[C@@H]6O)O[C@@]4(C(=O)O5)[C@@]12O` (stereo partly shown) [ginkgolide B], the “antagonism to the PAF” value is reported as “strongest”.
